Reference: patent US5877187A, “Benzimidazole derivatives with antihistaminic activity” (Fabrica Espanola de Productos Quimicos y Farmaceuticos S.A. …, priority 1996, dated 1999)

Tests used:
ECG / QTc interval = assay: ECG and QTc interval in rats after i.v. administration; type: in vivo, rat; conditions: 20 mg/kg i.v.
[1] = test system: histamine-induced cutaneous capillary permeability; assay: Inhibition of the increment of histamine-induced cutaneous capillary permeability in rats; type: in vivo, rat
Excerpt: (§1) Compounds of formula I have useful pharmacological properties. In particular, they are potent H1 antihistamines.

[2] = test system: acetylcholine-induced contractions in isolated guinea pig ileum; assay: Antagonism of acetylcholine-induced contractions in isolated guinea pig ileum; type: cell-based; design: dose or concentration left out as unconfirmed
[3] = biological target: T1, guinea pig ileum H1 -receptor histamine (Cavia porcellus, UniProt P31389); assay: Blocking of histamine-induced contractions in the isolated guinea pig ileum; type: cell-based; conditions: calculated, mixed antagonist
T1 construct: isolated guinea pig ileum; from tissue; host or cells: isolated guinea pig ileum
T1 sequence (P31389 whole entry): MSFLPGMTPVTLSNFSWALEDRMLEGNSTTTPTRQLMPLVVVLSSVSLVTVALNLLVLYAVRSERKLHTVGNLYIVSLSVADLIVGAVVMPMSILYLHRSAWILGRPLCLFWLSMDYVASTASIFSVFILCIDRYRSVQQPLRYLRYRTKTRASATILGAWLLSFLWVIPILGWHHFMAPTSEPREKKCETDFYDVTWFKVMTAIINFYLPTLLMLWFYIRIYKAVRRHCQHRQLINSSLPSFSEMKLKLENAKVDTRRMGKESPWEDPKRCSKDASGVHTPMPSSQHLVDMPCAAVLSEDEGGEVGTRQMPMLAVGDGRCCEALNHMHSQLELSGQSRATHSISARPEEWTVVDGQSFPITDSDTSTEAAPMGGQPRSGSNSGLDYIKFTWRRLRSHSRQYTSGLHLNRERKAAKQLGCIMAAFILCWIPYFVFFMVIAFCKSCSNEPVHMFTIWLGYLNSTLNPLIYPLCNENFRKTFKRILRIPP
Excerpt: as §1

[4] = test system: spontaneous motor activity; assay: Spontaneous motor activity of the rat; type: in vivo; conditions: 100 mg/kg p.o.

CCOCCn1c(C2CCN(CCc3ccc(C(C)(C)C(=O)O)cc3)CC2)nc2ccccc21 [Ib (R1 =Et), 2-[4-(2-(4-(1-(2-ethoxyethyl)benzimidazole-2-yl)piperidine-1-yl)ethyl)phenyl]-2-methylpropanoic Acid]
increase of the QTc interval (ECG / QTc interval): nor does it increase the QTc interval
morphological ECG disturbance (ECG / QTc interval): induces no morphological ECG disturbance
duration of significant activity in excess of 50% ([1]; 5 mg/kg p.o.): at least 6 hours
inhibition at 5 mg/kg ([1]; Rattus norvegicus, po, 5 mg/kg p.o., maintained for at least 6 hours, read-out: activity (inhibition of the increase in capillary permeability)): > 50%
ED50 ([1]; Rattus norvegicus, po, read-out: DE50, inhibition of the increase in capillary permeability): ~2 mg/kg
antagonism of acetylcholine-induced contractions [2]: not able to antagonize significantly
pD2' [3]: 6.50
Kb ([3]; read-out: pA2 (converted)): 7.94 to 10.5 nM
effect on spontaneous motor activity [4]: does not modify
